# Assay results taken from ChEMBL document CHEMBL1121390, “Rm values and structure-activity relationship of benzodiazepines” (J Med Chem, 1980).
# Tests used:
# Rattus norvegicus [1] = organism: Rattus norvegicus; test: ED50 value was reported as log1/C, which is the concentration required to reduce locomotor activity by 50% in rats; format: functional
# [2] = Partition coefficient (logP); format: physicochemical; conditions: octanol/water
# Rattus norvegicus [3] = organism: Rattus norvegicus; test: Fourfod increase in lever pressing in punished rats, ED50 value reported as log1/C; format: functional
# Rattus norvegicus [4] = organism: Rattus norvegicus; test: Halving of lever pressing in non punished rats, ED50 value reported as log 1/C; format: functional
Compound,Log 1/C (Rattus norvegicus [1]),logP [2],Log 1/C (Rattus norvegicus [3]),Log 1/C (Rattus norvegicus [4])
O=C1C[N+]([O-])=C(c2ccccc2)c2cc(Cl)ccc2N1CCO,0.346,0.44,,
O=C1C(O)N=C(c2ccccc2)c2cc(Cl)ccc2N1CCO (stereo not drawn),0.797,1.35,0.361,0.42
CN1C(=O)C(O)N=C(c2ccccc2F)c2cc(Cl)ccc21 (stereo not drawn) [FLUTEMAZEPAM],2.81,2,2.585,2.371
O=C1CN=C(c2ccccc2)c2cc(Cl)ccc2N1 [NORDAZEPAM],1.247,,1.83,0.832
O=C1CN=C(c2ccccc2)c2cc(Cl)ccc2N1CC1CC1 [PRAZEPAM],0.709,3.72,,
O=C1CN=C(c2ccccc2)c2cc(Cl)ccc2N1CC(F)(F)F [HALAZEPAM],1.097,3.73,,
O=C1C[N+]([O-])=C(c2ccccc2)c2ccccc2N1,,1.46,,
COc1cc(C(=O)OC2N=C(c3ccccc3)c3cc(Cl)ccc3NC2=O)cc(OC)c1OC (stereo not drawn),0.358,3.54,,
CN1C(=O)C(O)N=C(c2ccccc2)c2cc(Cl)ccc21 (stereo not drawn) [TEMAZEPAM],1.629,,1.883,1.228
CCOC1N=C(c2ccccc2)c2cc(Cl)ccc2N(CCCl)C1=O (stereo not drawn),0.193,3.95,,
CN1C(=O)CN=C(C2C=CCCC2)c2cc(Cl)ccc21 (stereo not drawn),,2.76,,
O=C1CN=C(c2ccccc2Cl)c2cc([N+](=O)[O-])ccc2N1 [CLONAZEPAM],,2.41,,
CNC(=O)N1C(=O)CN=C(c2ccccc2)c2cc([N+](=O)[O-])ccc21,,1.95,,
CCN(CC)CCN1C(=O)CN=C(c2ccccc2F)c2cc(Cl)ccc21 [FLURAZEPAM],1.943,2.35,1.745,1.291
CN1C(=O)CN=C(c2ccccc2)c2cc(Cl)ccc21 [DIAZEPAM],1.793,,1.876,1.659
O=C1CN=C(c2ccccc2)c2cc([N+](=O)[O-])ccc2N1 [NITRAZEPAM],2.326,2.12,,
O=C(O)CCC(=O)OC1N=C(c2ccccc2)c2cc(Cl)ccc2NC1=O (stereo not drawn),1.381,1.41,,
O=C1C(O)N=C(c2ccccc2Cl)c2cc(Cl)ccc2N1CCO (stereo not drawn),2.005,1.94,1.959,1.711
CNC1C[N+]([O-])=C(c2ccccc2)c2cc(Cl)ccc2N1 (stereo not drawn),1.628,2.5,1.578,1.277
O=C1C(O)N=C(c2ccccc2F)c2cc(Cl)ccc2N1CCO (stereo not drawn) [DOXEFAZEPAM],2.239,1.36,1.648,1.697
CC(=O)OCCN1C(=O)C(OC(C)=O)N=C(c2ccccc2)c2cc(Cl)ccc21 (stereo not drawn),,2.48,,

Compound,Log 1/C (Rattus norvegicus [1]),logP [2],Log 1/C (Rattus norvegicus [3]),Log 1/C (Rattus norvegicus [4])
O=C1CN=C(c2ccccc2F)c2cc(Cl)ccc2N1,2.046,2.15,2.284,1.825
CCN(CC)CCN1C(=O)C(O)N=C(c2ccccc2)c2cc(Cl)ccc21 (stereo not drawn),,1.67,,
O=C1Nc2ccc(Cl)cc2C(c2ccccc2Cl)=NC1O (stereo not drawn) [LORAZEPAM],3.145,,2.444,2.897
CN1CCN=C(c2ccccc2)c2cc(Cl)ccc21 [MEDAZEPAM],1.443,4.05,,
O=C1CN=C(c2ccccc2Cl)c2cc(Cl)ccc2N1 [DELORAZEPAM],2.79,2.73,2.678,2.509
CCN(CC)CCN1C(=O)C(O)N=C(c2ccccc2F)c2cc(Cl)ccc21 (stereo not drawn),,1.68,,
CCCC(CCC)C(=O)OC1N=C(c2ccccc2)c2cc(Cl)ccc2NC1=O (stereo not drawn),0.503,5.25,,
CCN(CC)CCN1C(=O)C(O)N=C(c2ccccc2Cl)c2cc(Cl)ccc21 (stereo not drawn),,2.26,,
O=C1Nc2ccc(Cl)cc2C(c2ccccc2F)=NC1O (stereo not drawn),2.501,1.48,2.36,2.045
CN1C(=O)CN=C(c2ccccc2Cl)c2cc(Cl)ccc21,2.409,3.25,2.824,2.409
CN1C(=O)CN=C(c2ccccc2F)c2cc(Cl)ccc21 [FLUDIAZEPAM],2.598,2.67,2.721,2.417
O=C(O)CCC(=O)OCCN1C(=O)C[N+]([O-])=C(c2ccccc2)c2cc(Cl)ccc21,0.762,0.19,,
O=C1Nc2ccc(Cl)cc2C(c2ccccc2)=NC1O (stereo not drawn) [OXAZEPAM],1.191,,1.192,0.961
CC(=O)OC1N=C(c2ccccc2)c2cc(Cl)ccc2N(CCO)C1=O (stereo not drawn),,2.01,,
CC(=O)OCCCN1C(=O)C(OC(C)=O)N=C(c2ccccc2)c2cc(Cl)ccc21 (stereo not drawn),,3,,
CCOC1N=C(c2ccccc2)c2cc(Cl)ccc2N(CCOC(C)=O)C1=O (stereo not drawn),,2.87,,
CCOC1N=C(c2ccccc2)c2cc(Cl)ccc2N(CCO)C1=O (stereo not drawn),,2.4,,
O=C1C(O)N=C(c2ccccc2)c2cc(Cl)ccc2N1CCCO (stereo not drawn),,1.87,,
CN1C(=O)C(O)N=C(c2ccccc2Cl)c2cc(Cl)ccc21 (stereo not drawn) [LORMETAZEPAM],2.594,2.58,2.658,2.394
O=C1C(O)N=C(c2ccccc2)c2cc([N+](=O)[O-])ccc2N1CCO (stereo not drawn),0.34,0.72,,
